The values that follow come from PubChem BioAssay AID2842 (Southern Research Institute, 2010).

The assay deals with M. tuberculosis H37Rv growth inhibition. Nature of the assay: Mycobacterium tuberculosis H37Rv growth inhibition, putative kinase inhibitor library, confirmatory dose response (AID 2842).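 Note: bacteria incubated one week before Alamar blue readout.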

Values after ≈ are worked out from the molar mass of the structure shown.

Regarding `COc1ccc(-c2nnc3c4ccccc4n(Cc4cccc(C)c4)cc2-3)cc1`, the IC90 was 13.4 µg/mL (≈ 35.3 µM).
For the compound `Cc1ccc(S(=O)(=O)CCCC(=O)Nc2nc3c(Cl)c(Cl)ccc3s2)cc1`, the IC90 is 3.41 µg/mL (≈ 7.69 µM).
The result for `Cc1ccc(Cl)cc1N1CCN(CCn2c(C)c(C)n3c4c(=O)[nH]c(=O)n(C)c4nc23)CC1` reads 49.7 µg/mL (≈ 106 µM); that for `O=C(/C=C/c1ccccc1Cl)Nc1nnc(C2=COCCO2)o1`, 26.7 µg/mL (≈ 79.9 µM); that for `Cc1ccccc1C(=O)Nc1nnc(-c2ccc(Cl)cc2)o1`, 0.55 µg/mL (≈ 1.75 µM).
The figure for `Cc1ccc2c(c1)NC(=O)c1cc(NS(=O)(=O)c3ccc4c(c3)OCCO4)ccc1O2` is 17.5 µg/mL (≈ 39.9 µM).
`O=C(Cc1ccccc1)Nc1nnc(-c2ccc3c(c2)OCCO3)o1`: the IC90 is 15.8 µg/mL (≈ 47 µM).
Consider `CN(c1ccccc1)S(=O)(=O)c1ccc(C(=O)Nc2nnc(-c3ccco3)o2)cc1`, for which the IC90 was 8.33 µg/mL (≈ 19.6 µM).
The result for `Fc1cccc2sc(Nc3nnc(-c4ccccc4)o3)nc12` reads 9.14 µg/mL (≈ 29.3 µM); that for `O=C(CN1CCOCC1)Nc1ncc(Cc2cc(Cl)cc(Cl)c2)s1`, 14.9 µg/mL (≈ 38.5 µM); that for `CSc1nc2cc(NC(=S)NC(=O)c3ccccc3)ccc2s1`, 6.89 µg/mL (≈ 19.2 µM).
The figure for `CCCC(=O)Nc1nnc(-c2ccc(C)cc2C)o1` is 2.25 µg/mL (≈ 8.68 µM).
Turning to `COc1ccc2nc(Nc3sc4c(c3C(N)=O)CCC(C)C4)sc2c1` (stereo not given), the IC90 is 27.8 µg/mL (≈ 74.5 µM).
The result for `O=C(Nc1ccc(Cl)c(Cl)c1)NC1CC(=O)N(c2cccc(F)c2)C1` (stereo not given) reads 6.41 µg/mL (≈ 16.8 µM); that for `COc1ccc(OCC(=O)Nc2ccc(I)cc2C)cc1`, 3.2 µg/mL (≈ 8.06 µM).
The figure for `CSc1cccc(-c2nnc(NC(=O)/C=C/c3cccs3)o2)c1` is 4.49 µg/mL (≈ 13.1 µM).
On to `COc1ccc(C(=O)Oc2cccc(Nc3ncnc4ccccc34)c2)cc1`, for which the IC90 is 15.1 µg/mL (≈ 40.5 µM).
For the compound `COC(=O)c1c(NC(=O)c2ccccc2Cl)sc2c1CC(C)(C)NC2(C)C`, the IC90 was 44.8 µg/mL (≈ 110 µM).
The figure for `COc1ccc(OC)c2sc(N(CCCn3ccnc3)C(=O)c3ccco3)nc12` is 6.7 µg/mL (≈ 16.2 µM).
The result for `O=C(OCc1nc2ccccc2s1)c1ccc(F)cc1` reads 15.4 µg/mL (≈ 53.5 µM); that for `Cc1nc2ccc(NC(=O)Nc3cccc(Cl)c3)cc2s1`, 22.3 µg/mL (≈ 70.1 µM).
The figure for `CCN(CC)S(=O)(=O)c1ccc(C(=O)Nc2nnc(-c3cc(C)ccc3C)o2)cc1` is 13.1 µg/mL (≈ 30.5 µM); for `CC(C)(C)c1ccc(C(=O)Nc2nnc(-c3cccnc3)o2)cc1` it is 0.84 µg/mL (≈ 2.61 µM); for `Cc1ccc2sc(NNC(=O)c3cccs3)nc2c1C` it is 23.2 µg/mL (≈ 76.4 µM).
On to `O=C(OCc1ccco1)c1cc2cc(Br)ccc2oc1=O`, for which the IC90 was 16.3 µg/mL (≈ 46.7 µM).
Turning to `CCN(C1CCCCC1)S(=O)(=O)c1ccc(C(=O)Nc2nnc(-c3ccc(F)cc3)o2)cc1`, the IC90 is 5.64 µg/mL (≈ 11.9 µM).
As to `O=C(Nc1nnc(-c2cccs2)o1)c1ccc2c(c1)CCCC2`, the IC90 is 37.6 µg/mL (≈ 116 µM).
The result for `COc1cccc(/C=N/Nc2nc(=O)[nH]nc2C)c1O` reads 0.5 µg/mL (≈ 1.82 µM).
`CC1CCc2c(sc(Nc3nc4ccc(F)cc4s3)c2C(N)=O)C1` (stereo not given): the IC90 is 35.8 µg/mL (≈ 99 µM).
Consider `O=C(CCOc1ccccc1)Nc1nnc(-c2ccc(Cl)s2)o1`, for which the IC90 is 13.9 µg/mL (≈ 39.7 µM).
The figure for `Cc1ccccc1C(=O)Nc1nnc(-c2ccncc2)o1` is 13.5 µg/mL (≈ 48.2 µM); for `O=C(Nc1nc2c(s1)COc1ccccc1-2)c1cccc(NS(=O)(=O)c2ccc(F)cc2)c1` it is 13.4 µg/mL (≈ 27.8 µM).
The result for `COc1cccc(NC(=O)c2ccc(COc3cccc(C)c3)o2)c1` reads 11.7 µg/mL (≈ 34.7 µM).
The result for `CCOc1cc(-c2nnc(NC(=O)c3ccccc3Cl)o2)cc(OCC)c1OCC` reads 1.61 µg/mL (≈ 3.73 µM); that for `CC1CCCCN1S(=O)(=O)c1ccc(C(=O)Nc2nnc(-c3ccc(Br)cc3)o2)cc1` (stereo not given), 17.3 µg/mL (≈ 34.2 µM).
As to `CCN1C(=O)CCc2cc(NS(=O)(=O)c3ccc(OCC(C)C)cc3)ccc21`, the IC90 was 18.3 µg/mL (≈ 45.5 µM).
The result for `Cc1c(Cc2ccc(Cl)cc2)c(NCCCN(C)C)n2c(nc3ccccc32)c1C#N` reads 2.21 µg/mL (≈ 5.12 µM); that for `O=C(Nc1nnc(-c2ccc(F)cc2)o1)c1cccc([N+](=O)[O-])c1`, 13.2 µg/mL (≈ 40.2 µM).
The result for `Cc1ccc(-c2nnc(NC(=O)c3ccccc3F)o2)c(C)c1` reads 1.31 µg/mL (≈ 4.21 µM); that for `O=C(Nc1ccc(I)cc1)c1ccc([N+](=O)[O-])s1`, below 0.2 µg/mL.
The figure for `CCc1ccc(-c2nnc3c4cc5c(cc4n(Cc4ccc(C)cc4)cc2-3)OCCO5)cc1` is 15.3 µg/mL (≈ 35 µM); for `O=C(Nc1nnc(-c2cc(Cl)ccc2Cl)o1)c1cccc(Cl)c1` it is 31.7 µg/mL (≈ 86.1 µM); for `CC(C)Oc1ccc(C(=O)Nc2nnc(-c3cc(Cl)ccc3Cl)o2)cc1` it is 13.8 µg/mL (≈ 35.3 µM).
Turning to `CC(C)C(=O)Nc1nnc(-c2ccc3c(c2)OCCO3)o1`, the 90% effect concentration (IC90) is 52.3 µg/mL (≈ 181 µM).
`COc1cccc(C(=O)Nc2nnc(-c3ccc(Cl)cc3)o2)c1`: the IC90 was below 0.2 µg/mL.
The figure for `CCc1ccc(OCC(=O)Nc2ccc(OC)cc2)cc1` is 12.7 µg/mL (≈ 44.3 µM); for `CC(C)CCn1c(N2CCN(Cc3cccc(Cl)c3)CC2)nc2c1c(=O)[nH]c(=O)n2C` it is 14.1 µg/mL (≈ 31.8 µM).
The result for `Cc1ccc(C)c(-c2nnc(NC(=O)CCc3ccccc3)o2)c1` reads 10.9 µg/mL (≈ 33.8 µM); that for `Cc1ccc2nc(NNC(=O)c3cc4ccccc4oc3=O)sc2c1`, 1.75 µg/mL (≈ 4.98 µM).
The figure for `CCOc1ccc(C(=O)Nc2nnc(-c3ccccn3)o2)cc1` is 1.03 µg/mL (≈ 3.32 µM).
